What all share (type): cell-based
What all share (settings): second agent in combination with Compound I, 7 days; for Synergy region (synergy score): Bliss/HSA excess

The test system of test [1] is VCaP cells. The test can be described thus: CTG proliferation assay, in-vitro combination screen, VCaP. Set-up: key to Synergy excess / Additivity score: area between experimental and reference (Bliss/HSA) response surfaces. The method, then: (§1) Three prostate cancer cell lines LNCAP, VCAP, and 22RV1 were used in this screen. Briefly, LNCaP cells were cultured in RPMI medium supplemented with 10% FBS, 1% penicillin/streptomycin, 10 mM HEPES, 1 mM sodium pyruvate, and 1.5 g/L sodium bicarbonate. […] PC3 cells were cultured in F12K medium supplemented with 10% FBS and 1% penicillin/streptomycin. 22RV1 cells were cultured in RPMI1640 medium supplemented with 10% FBS and 1% penicillin/streptomycin. […] VCaP cells were cultured in DMEM medium supplemented with 10% FBS, 1% penicillin/streptomycin 1 mM sodium pyruvate, 1.5 g/L sodium bicarbonate on high bind treated tissue culture flasks (Corning CellBIND) to increase cell surface attachment. […] The combination plates seeded with cells were then incubated for 7 days at 37° C. and 5% CO2. Cell viability assays were then performed on the plates using Promega CellTiter-Glo (CTG) Luminescent Cell Viability Assay kit and following the manufacturer's protocol. 20 μL of CTG reagent was added to each well of the 384 well plate, and plates were then incubated for 45 minutes before measuring the […] using PerkinElmer EnVision Plate Reader.
(§2) Synergy is calculated by Bliss and HSA excess scores. Bliss and HSA excess scores are computed by subtracting the area under the experimental response surface to the areas under the corresponding reference model surface. A negative HSA excess score indicates antagonism, while a positive HSA excess indicates additivity and synergy is detected when also the Bliss excess score is positive. Replicates are integrated by fitting individual dose response curves. Statistical analysis is performed by first estimating experimental noise and goodness-of-fit values for each individual combination. These values are used to compute Z-scores for the observed effects. Z-scores are integrated across the combination matrix where the deviation from the model is consistent over adjacent doses and a p-value is computed.

Test [2] relates to LNCaP cells. Description: CTG proliferation assay, in-vitro combination screen, LNCaP. Details: key to Synergy excess: experimental response-surface area minus reference-model area (Bliss/HSA); Maximum synergy: scale not given here. The protocol: Three prostate cancer cell lines LNCAP, VCAP, and 22RV1 were used in this screen. Briefly, LNCaP cells were cultured in RPMI medium supplemented with 10% FBS, 1% penicillin/streptomycin, 10 mM HEPES, 1 mM sodium pyruvate, and 1.5 g/L sodium bicarbonate. LNCaP cells were seeded at a density of 2000 cells/well on 384 black assay plates printed with our different compound combinations of interest printed on the plates. PC3 cells were cultured in F12K medium supplemented with 10% FBS and 1% penicillin/streptomycin. 22RV1 cells were cultured in RPMI1640 medium supplemented with 10% FBS and 1% penicillin/streptomycin. 22RV1 cells were seeded at a density of 2000 cells/well on 384 black assay plates printed with our different compound combinations of interest printed on the plates. VCaP cells were cultured in DMEM medium supplemented with 10% FBS, 1% penicillin/streptomycin 1 mM sodium pyruvate, 1.5 g/L sodium bicarbonate on high bind treated tissue culture flasks (Corning CellBIND) to increase cell surface attachment. VCaP cells were seeded at a density of 3000 cells/well on high-bind 384 black assay plates printed with our different compound combinations of interest printed on the plates. The combination plates seeded with cells were then incubated for 7 days at 37° C. and 5% CO2. Cell viability assays were then performed on the plates using Promega CellTiter-Glo (CTG) Luminescent Cell Viability Assay kit and following the manufacturer's protocol. 20 μL of CTG reagent was added to each well of the 384 well plate, and plates were then incubated for 45 minutes before measuring the […] using PerkinElmer EnVision Plate Reader.
as §2

In test [3] the test system is 22RV1 cells. Description: CTG proliferation assay, in-vitro combination screen, 22RV1. Details: key to Synergy region (synergy score) / Additivity score / Antagonism score: area between experimental and reference (Bliss/HSA) response surfaces. The protocol:
as §1, §2

As for `N#CC[C@H](C1CCCC1)n1cc(-c2ncnc3[nH]ccc23)cn1` [Ruxolitinib, ruxolitinib], in test [1], the Additivity score is 5.2 and the Antagonism score stood at 0.

For the compound `C[C@@H](Nc1cc(F)cc(F)c1)c1cc(C(=O)N(C)C)cc2c(=O)cc(N3CCOCC3)oc12` [AZD8186], in test [2], the Additivity score amounted to 10, the Antagonism score was 0, the Maximum synergy is 12 and the Synergy excess was 4.4. Moreover, the “Synergy region (synergy score)” value in test [2] is listed as 1.5. For the same compound, in test [1], the Additivity score turned out to be 2.1, the Antagonism score was 0, the Maximum synergy is listed as 11 and the Synergy excess was 2.9. Moreover, the “Synergy region (synergy score)” value in test [1] came out at 0.39. Further, in test [3], the Additivity score amounted to 7.6, the Antagonism score is given as 0, the Maximum synergy is 24 and the Synergy excess is 2.4. Also, the “Synergy region (synergy score)” value in test [3] was determined as 1.6.

For `CNC(=O)c1cc(Oc2ccc(NC(=O)Nc3ccc(Cl)c(C(F)(F)F)c3)cc2)ccn1` [Sorafenib, sorafenib], in test [3], the Additivity score came to 2.6, the Antagonism score was 0, the Maximum synergy was found to be 20 and the “Synergy region (synergy score)” value amounted to 0.65.

As for `CCN(c1cc(-c2ccc(CN3CCOCC3)cc2)cc(C(=O)NCc2c(C)cc(C)[nH]c2=O)c1C)C1CCOCC1` [Tazemetostat, tazemetostat], in test [2], the Additivity score is recorded as 6.1, the Antagonism score stood at 0, the Maximum synergy stood at 20 and the Synergy excess worked out at 5.3. Besides, the “Synergy region (synergy score)” value in test [2] was 4.1.

Regarding `NC1(C(=O)N[C@@H](CCO)c2ccc(Cl)cc2)CCN(c2nc[nH]c3nccc2-3)CC1` [AZD5363, capivasertib], in test [2], the Additivity score was 16, the Antagonism score was 0, the Maximum synergy stood at 26 and the Synergy excess stood at 9.4. The “Synergy region (synergy score)” value in test [2] came out at 8.1. Besides, in test [1], the Additivity score worked out at 7.1, the Antagonism score amounted to 0, the Maximum synergy turned out to be 13 and the Synergy excess is listed as 6.2. Besides, the “Synergy region (synergy score)” value in test [1] turned out to be 2.

Regarding `CC(C)NC[C@@H](C(=O)N1CCN(c2ncnc3c2[C@H](C)C[C@H]3O)CC1)c1ccc(Cl)cc1` [GDC-0068, ipatasertib], in test [2], the Additivity score was 13, the Antagonism score was determined as 0, the Maximum synergy is listed as 23 and the Synergy excess is listed as 7.6. For the same compound, the “Synergy region (synergy score)” value in test [2] is on record as 5.6. Also, in test [1], the Additivity score was 7.5, the Antagonism score was 0, the Maximum synergy is given as 14 and the Synergy excess was found to be 3.8. Besides, the “Synergy region (synergy score)” value in test [1] was found to be 1.5. In test [3], the Additivity score stood at 7.5, the Antagonism score was 0, the Maximum synergy was 23 and the Synergy excess came out at 2.4. In test [3], the “Synergy region (synergy score)” value stood at 2.1.

The values are drawn from US20260174749A1, “COMBINATION THERAPY WITH SUBSTITUTED 3-((3-AMINOPHENYL)AMINO)PIPERIDINE-2,6- DIONE COMPOUNDS” (Bristol-Myers Squibb Company, priority 2022, published 2026).
